EP4603105A1, “PHARMACEUTICAL COMPOSITION CONTAINING CYCLIC COMPOUND HAVING SELECTIVE KRAS INHIBITORY EFFECT AGAINST HRAS AND NRAS” (CHUGAI SEIYAKU KABUSHIKI KAISHA, priority 2022, dated 2024)
*1 amine or outer side, *2 acyl side, *3 side chain or, on linkers, in order; H or OH if unused. Where a SMILES comes first, the peptide text is derived from it. Bridges are numbered along the chain shown (N, C = ends). [ ]: non-standard residue; d: D form. The star is where a group is joined. hPhe(3,5-F2-4-CF3) = N[C@@H](CCc1cc(F)c(C(F)(F)F)c(F)c1)C(=O)O; hPhe(3-Cl-4-CF3) = N[C@@H](CCc1ccc(C(F)(F)F)c(Cl)c1)C(=O)O; NPrPhe(4-CF3) = CCCN[C@@H](Cc1ccc(C(F)(F)F)cc1)C(=O)O; X17 = CN([C@@H](CCCCC=[*:3])C(=O)[*:2])[*:1]; dαMeAlg = C[C@](CC=[*:3])(N[*:1])C(=O)[*:2]; X30 = CCN([C@H](C(=O)[*:2])C1CCCC1)[*:1]; NMeGly(cPent) = CN[C@H](C(=O)O)C1CCCC1; Hyp = O=C(O)[C@@H]1C[C@@H](O)CN1; NMeD = CN[C@@H](CC(=O)O)C(=O)O; NMeL = CN[C@@H](CC(C)C)C(=O)O; Morpholide = C1CN(*)CCO1; NMeA = CN[C@@H](C)C(=O)O; Ac5c = NC1(C(=O)O)CCCC1; Aze = O=C(O)[C@@H]1CCN1; Sar = CNCC(=O)O

Assays:
[1] = target: GDP-bound NRAS wild-type protein (Homo sapiens, UniProt P01111); experiment: Binding to NRAS by surface plasmon resonance (SPR), KD and KD ratio to KRAS
Outline: (§1)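 GDP-bound biotin-Avi RAS captured at ~100–300 RU, 30°C, pH 7.4 HBS containing 10 µM GDP, 10 mM MgCl2, 1 mM DTT, 0.01% Tween 20 and 4% DMSO. KD by 1:1 fitting.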

[2] = target: HRAS wild-type protein (Homo sapiens, UniProt P01112); experiment: Binding to HRAS by surface plasmon resonance (SPR), KD and KD ratio to KRAS
Outline: as §1

[3] = system: human lung cancer strain NCI-H441; assay type: cell-based
Outline: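 Readout: […] after the ATP-based reagent. Compound: serial dilutions in dimethyl sulfoxide.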

[4] = ratio of KD for GDP-bound NRAS wild-type protein to KD for KRAS
[5] = ratio of KD for HRAS wild-type protein to KD for KRAS
[6] = ratio of the KD value with respect to GDP-bound NRAS wild-type protein to the KD value with respect to KRAS
[7] = ratio of the KD value with respect to HRAS wild-type protein to the KD value with respect to KRAS

Chain of HRAS wild-type protein (P01112 whole entry): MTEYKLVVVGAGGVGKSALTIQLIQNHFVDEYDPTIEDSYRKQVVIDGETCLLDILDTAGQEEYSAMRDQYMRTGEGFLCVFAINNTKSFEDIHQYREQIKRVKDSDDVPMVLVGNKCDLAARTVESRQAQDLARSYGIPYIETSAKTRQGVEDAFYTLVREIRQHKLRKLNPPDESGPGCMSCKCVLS
Chain of GDP-bound NRAS wild-type protein (P01111 whole entry): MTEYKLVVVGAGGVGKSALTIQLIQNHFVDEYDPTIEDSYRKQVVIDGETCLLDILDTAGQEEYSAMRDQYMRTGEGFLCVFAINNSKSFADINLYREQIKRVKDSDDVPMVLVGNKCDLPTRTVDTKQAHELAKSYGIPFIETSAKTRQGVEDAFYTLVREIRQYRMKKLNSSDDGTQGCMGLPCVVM

Row | IC50 [3] [nM] | SMILES | NRAS /KRAS [1, 4] | HRAS /KRAS [2, 5] | NRAS /KRAS [1, 6] | HRAS /KRAS [2, 7] | NRAS /KRAS ([1]; ratio of KD value for GDP-bound NRAS wild-type protein to KD value for KRAS (SPR)) | HRAS /KRAS ([2]; ratio of KD value for HRAS wild-type protein to KD value for KRAS (SPR))
1 | 72 | CCC[C@H]1C(=O)N[C@@H]([C@@H](C)CC)C(=O)N(C)CC(=O)N(C)[C@H]2C/C=C\CCN(C2=O)[C@@H](Cc2ccc(C(F)(F)F)cc2)C(=O)N(C)CC(=O)N[C@@H](CCc2ccc3c(C)c(C)n(C)c3c2)C(=O)N2C[C@H](OCC)C[C@H]2C(=O)NC2(CC(C)(C)C2)C(=O)N(C)[C@@H](C2CCCC2)C(=O)N(C)[C@H](C(=O)N(C)C)CC(=O)N1C [PP2893] | A (a compound having 10 or more and less than 20 is denoted as A) | A (a compound having 10 or more and less than 20 is denoted as A) | – | – | – | –
2 | 41.4 | CC[C@H](C)[C@@H]1NC(=O)[C@H](CC(C)C)N(C)C(=O)C[C@@H](C(=O)N2CCOCC2)N(C)C(=O)[C@H](C2CCCC2)N(C)C(=O)C2(CCCC2)NC(=O)[C@@H]2CCCN2C(=O)[C@H](CCc2ccc(C(F)(F)F)c(Cl)c2)NC(=O)CN(C)C(=O)[C@H](C2CCCC2)N(CC)C(=O)[C@@H]2CCN2C(=O)[C@H](C)N(C)C1=O [PP0003] ([NMeL]I[NMeA][Aze][X30][Sar][hPhe(3-Cl-4-CF3)]P[Ac5c][NMeGly(cPent)][NMeD]-Morpholide; lactam N-11) | C (A compound having a KD ratio of 0.1 or more and less than 3 is denoted as C) | C (A compound having a KD ratio of 0.1 or more and less than 3 is denoted as C) | – | – | – | –
3 | 10.7 | CCCN1CC(=O)N(C)[C@H]2C/C=C\CCN(C2=O)[C@@H](Cc2ccc(C)cc2)C(=O)N(C)CC(=O)N[C@@H](CCc2ccc(C(F)(F)F)c(OC)c2)C(=O)N2C[C@H](OCC)C[C@H]2C(=O)NC2(CC(C)(C)C2)C(=O)N(C)[C@@H](C2CCCC2)C(=O)N(C)[C@H](C(=O)N(C)C)CC(=O)N(C)[C@@H](CC)C(=O)N[C@@H]([C@@H](C)CC)C1=O [PP2096] | – | – | A (a compound having 10 or more and less than 20 is denoted as A) | A (a compound having 10 or more and less than 20 is denoted as A) | – | –
4 | 28.2 | CCC[C@H]1C(=O)N[C@@H]([C@@H](C)CC)C(=O)N(C)CC(=O)N(C)[C@H]2C/C=C\CCN(C2=O)[C@@H](Cc2ccc(C(F)(F)F)cc2)C(=O)N(C)CC(=O)N[C@@H](CCc2cc(F)c3c(c2)CCC3)C(=O)N2C[C@H](OCC)C[C@H]2C(=O)NC2(CC(C)(C)C2)C(=O)N(C)[C@@H](C2CCCC2)C(=O)N(C)[C@H](C(=O)N(C)C)CC(=O)N1C [PP2849] | A (a compound having 10 or more and less than 20 is denoted as A) | A (a compound having 10 or more and less than 20 is denoted as A) | – | – | – | –
5 | 6 | CCC[C@H]1C(=O)N[C@@H]([C@@H](C)CC)C(=O)N(C)CC(=O)N(C)[C@H]2C/C=C\CCN(C2=O)[C@@H](Cc2ccc(C(F)(F)F)cc2)C(=O)N(C)CC(=O)N[C@@H](CCc2cc(F)c(Cl)c(F)c2)C(=O)N2C[C@H](OCC)C[C@H]2C(=O)NC2(CC(C)(C)C2)C(=O)N(C)[C@@H](C2CCCC2)C(=O)N(C)[C@H](C(=O)N(C)C)CC(=O)N1C [PP1758] | – | – | – | – | AA (a compound having 20 or more is denoted as AA) | A (a compound having 10 or more and less than 20 is denoted as A)
6 | 72.6 | CCCN1C(=O)CN(C)C(=O)CN(C)C(=O)[C@H]([C@@H](C)CC)NC(=O)[C@@H]2CCCCC=CC[C@@](C)(NC(=O)[C@@H]3C[C@@H](OCC)CN3C(=O)[C@H](CCc3cc(F)c(C(F)(F)F)c(F)c3)NC(=O)CN(C)C(=O)[C@@H]1Cc1ccc(C(F)(F)F)cc1)C(=O)N(C)[C@@H](C1CCCC1)C(=O)N(C)[C@H](C(=O)N1CCOCC1)CC(=O)N2C [PP0902] ([X17]I[Sar][Sar][NPrPhe(4-CF3)][Sar][hPhe(3,5-F2-4-CF3)][Hyp](Et)[dαMeAlg][NMeGly(cPent)][NMeD]-Morpholide; staple 1-9; lactam N-11) | A (a compound having 10 or more and less than 20 is denoted as A) | B (a compound having 3 or more and less than 10 is denoted as B) | – | – | – | –
7 | 11.5 | CC[C@H](C)[C@@H]1NC(=O)[C@H](CC(C)C)N(C)C(=O)C[C@@H](C(=O)N2CCOCC2)N(C)C(=O)[C@H](C2CCCC2)N(C)C(=O)C(C)(C)NC(=O)[C@@H]2CCCN2C(=O)[C@H](CCc2cc(F)c(C(F)(F)F)c(F)c2)NC(=O)CN(C)C(=O)[C@H](Cc2ccc(C(F)(F)F)cc2)N2CCCC[C@@H](C2=O)N(C)C(=O)CN(C)C1=O [PP0565] | – | – | C (A compound having a KD ratio of 0.1 or more and less than 3 is denoted as C) | B (a compound having 3 or more and less than 10 is denoted as B) | – | –
8 | 29 | C#CC[C@H]1C(=O)N[C@@H]([C@@H](C)CC)C(=O)N(C)CC(=O)N(C)[C@H]2C/C=C\CCN(C2=O)[C@@H](Cc2ccc(C(F)(F)F)cc2)C(=O)N(C)CC(=O)N[C@@H](CCc2cc(F)c(C(F)(F)F)c(F)c2)C(=O)N2C[C@H](OCC)C[C@H]2C(=O)NC2(CCC2)C(=O)N(C)[C@@H](C2CCCC2)C(=O)N(C)[C@H](C(=O)N(C)C)CC(=O)N1C [PP1115] | A (a compound having 10 or more and less than 20 is denoted as A) | A (a compound having 10 or more and less than 20 is denoted as A) | – | – | – | –
